Patent US7709223B2, “Method for detecting bacteria with chromogenic substrates for β-D-ribofuranosidase” (priority 2001, dated 2010)
Counter-ions that a name gives are not always drawn.

Key:
Gram negative bacteria = assay: Hydrolysis on Columbia agar with ferric ammonium citrate, strain panel; format: cell-based; details: 120 Gram negative bacteria tested
Experimental: (§1) The ribofuranoside derivative of dihydroxyflavone was tested with 194 distinct strains of bacteria. The choice of bacteria included a wide range many of which are important pathogens or commensals commonly isolated from pathological samples.
(§2) The chromogenic β-D-ribofuranoside substrate was added to Columbia agar at a substrate concentration of 300 mg/l. Ferric ammonium citrate was included at 500 mg/l. All ingredients were autoclaved at 116° C. for 20 minutes to ensure sterilisation. Agar plates were then prepared in 90 mm petri dishes. The substrate caused a yellow colouration of the agar.
(§3) For each strain tested, a bacterial suspension was prepared in sterile deionised water at an inoculum of approximately 1.5×10^8 colony forming units per ml. This was achieved using a densitometer. 1 μl of each bacterial suspension was then inoculated onto each plate using a multipoint inoculator. Strains were inoculated in parallel onto Columbia agar containing ferric ammonium citrate with no substrate (negative control).
(§4) After 18 hours incubation, strains were examined visually for the presence of colour. Any strains producing a black colouration on substrate containing media but not on the negative control plates were deemed to be hydrolysing the substrate.

Gram-positive bacteria = assay: as above; format: cell-based; details: Gram-positive bacteria tested
Experimental: as §1, §2, §3, §4

K. pneumoniae = assay: Hydrolysis on Columbia agar with ferric ammonium citrate; format: cell-based; parameters: β-Riboside (hydrolysis): key to the marks not given beside the values
Experimental: as §2, §3, §4

E. coli = assay: as above; format: cell-based; parameters: β-Riboside (hydrolysis): key to the marks not given beside the values
Experimental: as §2, §3, §4

E. aerogenes = assay: as above; format: cell-based; parameters: β-Riboside (hydrolysis): key to the marks not given beside the values
Experimental: as §2, §3, §4

Shigella sonnei = assay: as above; format: cell-based; parameters: β-Riboside (hydrolysis): key to the marks not given beside the values
Experimental: as §2, §3, §4

C. diversus = assay: as above; format: cell-based; parameters: key to the marks not given beside the values
Experimental: as §2, §3, §4

Serratia spp. = assay: as above; format: cell-based; parameters: key to the marks not given beside the values
Experimental: as §2, §3, §4

Salmonella typhimurium = assay: as above; format: cell-based; parameters: key to the marks not given beside the values; details: Salmonella typhimurium NCTC 74
Experimental: as §2, §3, §4

E. coli 0157 = assay: as above; format: cell-based; parameters: key to the marks not given beside the values
Experimental: as §2, §3, §4

Staphylococcus aureus = assay: as above; format: cell-based; parameters: key to the marks not given beside the values
Experimental: as §2, §3, §4

[1] = test system: Staphylococcus saprophyticus; assay: as above; format: cell-based; parameters: key to the marks not given beside the values
Experimental: as §2, §3, §4

Aeromonas hydrophila = assay: as above; format: cell-based; parameters: key to the marks not given beside the values; details: Aeromonas hydrophila NCTC 8049
Experimental: as §2, §3, §4

C. freundii = assay: as above; format: cell-based; parameters: key to the marks not given beside the values
Experimental: as §2, §3, §4

Hafnia alvei = assay: as above; format: cell-based; parameters: key to the marks not given beside the values
Experimental: as §2, §3, §4

Vibrio harveyi = assay: as above; format: cell-based; parameters: key to the marks not given beside the values; details: Vibrio harveyi NCTC 11346
Experimental: as §2, §3, §4

Salmonella alachia = assay: as above; format: cell-based; parameters: key to the marks not given beside the values; details: Salmonella alachia SAX 60
Experimental: as §2, §3, §4

Aeromonas sobria = assay: as above; format: cell-based; parameters: key to the marks not given beside the values; details: Aeromonas sobria NCTC 11215
Experimental: as §2, §3, §4

K. oxytoca = assay: as above; format: cell-based; parameters: key to the marks not given beside the values
Experimental: as §2, §3, §4

Shigella flexneri = assay: as above; format: cell-based; parameters: key to the marks not given beside the values
Experimental: as §2, §3, §4

Salmonella panama = assay: as above; format: cell-based; parameters: key to the marks not given beside the values; details: Salmonella panama SAX 58
Experimental: as §2, §3, §4

Salmonella oranienburg = assay: as above; format: cell-based; parameters: key to the marks not given beside the values; details: Salmonella oranienburg SAX 56
Experimental: as §2, §3, §4

C. diphtheriae = assay: as above; format: cell-based, Corynebacterium diphtheriae
Experimental: as §2, §3, §4

O=c1cc(-c2ccc(OC3OC(CO)C(O)C3O)c(O)c2)oc2ccccc12 [DHF-riboside, 3′,4′-Dihydroxyflavone-4′-β-D-ribofuranoside sodium salt]
++: β-Riboside (hydrolysis) (K. pneumoniae; K. pneumoniae KPN 2) | β-Riboside (hydrolysis) (K. pneumoniae; K. pneumoniae KPN 3) | β-Riboside (hydrolysis) (K. pneumoniae; K. pneumoniae KPN 4) | β-Riboside (hydrolysis) (K. pneumoniae; K. pneumoniae NCTC 10896) | β-Riboside (hydrolysis) (E. coli; E. coli ECO 2) | β-Riboside (hydrolysis) (E. coli; E. coli ECO 3) | β-Riboside (hydrolysis) (E. coli; E. coli ECO 4) | β-Riboside (hydrolysis) (E. coli; E. coli ECO 5) | β-Riboside (hydrolysis) (E. coli; E. coli ECO 6) | β-Riboside (hydrolysis) (E. coli; E. coli ECO 7) | β-Riboside (hydrolysis) (E. coli; E. coli ECO 8) | β-Riboside (hydrolysis) (E. coli; E. coli ECO 9) | β-Riboside (hydrolysis) (E. coli; E. coli ECO 10) | β-Riboside (hydrolysis) (E. coli; E. coli ECO 11) | β-Riboside (hydrolysis) (E. coli; E. coli ECO 12) | β-Riboside (hydrolysis) (E. coli; E. coli NCTC 10418) | β-Riboside (hydrolysis) (E. aerogenes; E. aerogenes EAE 1) | β-Riboside (hydrolysis) (E. aerogenes; E. aerogenes NCIMB 10102) | β-Riboside (hydrolysis) (Shigella sonnei; Shigella sonnei NCTC 8219) | β-Riboside (hydrolysis) (Shigella sonnei; Shigella sonnei NCTC 8574) | β-Riboside (hydrolysis) (Shigella sonnei; Shigella sonnei NCTC 8586) | β-Riboside (hydrolysis) (Shigella sonnei; Shigella sonnei NCTC 9774) | β-Riboside (hydrolysis) (Shigella sonnei; Shigella sonnei NCTC 10352) | β-Riboside (hydrolysis) (C. diversus; C. diversus CDI 1) | β-Riboside (hydrolysis) (C. diversus; C. diversus CDI 2) | β-Riboside (hydrolysis) (Serratia spp.; Serratia spp. SEX 1) | β-Riboside (hydrolysis) (Serratia spp.; Serratia spp. SEX 2) | β-Riboside (hydrolysis) (Serratia spp.; Serratia spp. SEX 3) | β-Riboside (hydrolysis) (Serratia spp.; Serratia spp. SEX 4) | β-Riboside (hydrolysis) (Salmonella typhimurium) | β-Riboside (hydrolysis) (E. coli 0157; E. coli 0157 NCTC 12079) | β-Riboside (hydrolysis) (E. coli 0157; E. coli 0157 NCTC 12080) | β-Riboside (hydrolysis) (E. coli 0157; E. coli 0157 NCTC 12900) | β-Riboside (hydrolysis) (E. coli 0157; E. coli 0157 NCTC 13125) | β-Riboside (hydrolysis) (E. coli 0157; E. coli 0157 NCTC 13126) | β-Riboside (hydrolysis) (E. coli 0157; E. coli 0157 NCTC 13127) | β-Riboside (hydrolysis) (E. coli 0157; E. coli 0157 NCTC 13128) | β-Ribofuranoside (hydrolysis) (Staphylococcus aureus; Reference No. 1) | β-Ribofuranoside (hydrolysis) (Staphylococcus aureus; Reference No. 2) | β-Ribofuranoside (hydrolysis) (Staphylococcus aureus; Reference No. 3) | β-Ribofuranoside (hydrolysis) (Staphylococcus aureus; Reference No. 4) | β-Ribofuranoside (hydrolysis) (Staphylococcus aureus; Reference No. 5) | β-Ribofuranoside (hydrolysis) ([1]; Reference No. 1) | β-Ribofuranoside (hydrolysis) ([1]; Reference No. 2) | β-Ribofuranoside (hydrolysis) ([1]; Reference No. 3) | β-Ribofuranoside (hydrolysis) ([1]; Reference No. 4) | β-Ribofuranoside (hydrolysis) ([1]; Reference No. 5) | β-Riboside (hydrolysis) (Aeromonas hydrophila) | β-Riboside (hydrolysis) (C. freundii; C. freundii CFR 1) | β-Riboside (hydrolysis) (C. freundii; C. freundii CFR 2) | β-Riboside (hydrolysis) (C. freundii; C. freundii CFR 3) | β-Riboside (hydrolysis) (C. freundii; C. freundii CFR 4) | β-Riboside (hydrolysis) (C. freundii; C. freundii NCTC 9750) | β-Riboside (hydrolysis) (Hafnia alvei; Hafnia alvei HAL 2) | β-Riboside (hydrolysis) (Hafnia alvei; Hafnia alvei NCTC 8105) | β-Riboside (hydrolysis) (Vibrio harveyi) | β-Riboside (hydrolysis) (Salmonella alachia) | β-Riboside (hydrolysis) (Aeromonas sobria) | β-Riboside (hydrolysis) (K. oxytoca; K. oxytoca KOX 1) | β-Riboside (hydrolysis) (K. oxytoca; K. oxytoca KOX 2) | β-Riboside (hydrolysis) (Shigella flexneri; Shigella flexneri NCTC 8192) | β-Riboside (hydrolysis) (Shigella flexneri; Shigella flexneri NCTC 9723) | β-Riboside (hydrolysis) (Shigella flexneri; Shigella flexneri NCTC 9780) | β-Riboside (hydrolysis) (Salmonella panama) | β-Riboside (hydrolysis) (Salmonella oranienburg) | β-Ribofuranoside (hydrolysis) (C. diphtheriae; C. diphtheriae NCTC 10356) | β-Ribofuranoside (hydrolysis) (C. diphtheriae; C. diphtheriae NCTC 11397) | β-Ribofuranoside (hydrolysis) (C. diphtheriae; Corynebacterium diphtheria NEQAS)
active: Activity with the substrate (C. diphtheriae; Corynebacterium diphtheriae)
+: β-Ribofuranoside (hydrolysis) (C. diphtheriae; C. diphtheriae NCTC 3987)
30.8%: Share of strains active with the substrate (Gram-positive bacteria)
68.3%: Share of strains that hydrolysed the substrate (Gram negative bacteria)
